Assay [1] has as its system HepG2. Kind of assay: Cytotoxicity against human HepG2 cells by MTT assay. The assay is classed as functional, cell-based. (Tetrazolium assays rely on reduction of a dye to a coloured formazan, in cell work by metabolically active cells.)
Assay [2] has as its system MDA-MB-231. The assay is described as follows: Antiproliferative activity against human MDA-MB-231 cells assessed as reduction in cell viability incubated for 48 hrs by MTT assay. In kind it is functional, cell-based. Conditions: MDA-MB-231, 48 h.
The subject of assay [3] is MCF7. Kind of assay: Antiproliferative activity against human MCF7 cells assessed as inhibition of cell growth by CCK8 assay. In kind it is functional, cell-based.
Assay [4] concerns MDA-MB-453. The assay is described as follows: Antiproliferative activity against human MDA-MB-453 cells assessed as inhibition of cell growth incubated for 48 hrs by MTT assay. Conditions: MDA-MB-453, 48 h. In kind it is functional, cell-based.
Assay [5] is described as follows: Inhibition of hyaluronidase (unknown origin). The arrangement: species or system Homo sapiens.
Assay [6] has as its system HepG2. The assay is described as follows: Antiproliferative activity against human HepG2 cells assessed as reduction in cell viability incubated for 48 hrs by MTT assay. In kind it is functional, cell-based. Conditions: HepG2, 48 h.
In assay [7] the test system is HeLa. Kind of assay: Cytotoxicity against human HeLa cells assessed as cell growth inhibition incubated for 24 hrs by MTT assay. In kind it is functional, cell-based.
The test system of assay [8] is HeLa. Kind of assay: Cytotoxicity against human HeLa cells assessed as reduction in cell viability incubated for 48 hrs by MTT assay. In kind it is functional, cell-based.
Assay [9] deals with Caco-2. The assay is described as follows: Antiproliferative activity against human Caco-2 cells incubated for 96 hrs by MTT assay. Conditions: Caco-2, 96 h. The assay is classed as functional, cell-based.
In assay [10] the test system is PC-3. Kind of assay: Antiproliferative activity against human PC-3 cells assessed as reduction in cell growth measured after 24 hrs by MTT assay. Conditions: PC-3, 24 h. The assay is classed as functional, cell-based.
Assay [11] deals with A549. Kind of assay: Cytotoxicity against human A549 cells assessed as reduction in cell viability by MTS assay. In kind it is functional, cell-based.
In assay [12] the test system is Acinetobacter baumannii. The assay is described as follows: Antibacterial activity against Acinetobacter baumannii assessed as reduction in bacterial growth by broth microdilution method. The assay is classed as functional. A general note: Dilution methods test growth across graded concentrations, often in twofold steps.
Assay [13] has as its system Staphylococcus aureus. The assay is described as follows: Antibacterial activity against Staphylococcus aureus […] assessed as reduction in microbial growth. The assay is classed as functional.
Assay [14] relates to Staphylococcus aureus. The assay is described as follows: Antibacterial activity against methicillin-resistant Staphylococcus aureus assessed as reduction in microbial growth. In kind it is functional.
The subject of assay [15] is Enterococcus faecalis. Kind of assay: Antibacterial activity against Enterococcus faecalis assessed as reduction in bacterial growth. The assay is classed as functional.
In assay [16] the test system is Staphylococcus aureus. Kind of assay: Antibacterial activity against Staphylococcus aureus ATCC 29213 assessed as reduction in microbial growth. In kind it is functional.
In assay [17] the test system is Escherichia coli. Kind of assay: Antibacterial activity against Escherichia coli assessed as reduction in bacterial growth by broth microdilution method. In kind it is functional.
Assay [18] relates to Toxoplasma gondii. The assay is described as follows: Antiparasitic activity against Toxoplasma gondii tachyzoites infected in human HeLa cells. The assay is classed as functional, organism-based.
Assay [19] addresses Tyrosine-protein phosphatase non-receptor type 1 (Homo sapiens, UniProt P18031). The assay is described as follows: Inhibition of Protein tyrosine phosphatase 1B (unknown origin).
In assay [20] the test system is MCF7. The assay is described as follows: Antiproliferative activity against human MCF7 cells assessed as reduction in cell viability incubated for 120 hrs by MTT assay. In kind it is functional, cell-based. As to conditions: MCF7, 120 h.
For assay [21], the system named is HeLa. Kind of assay: Antiproliferative activity against human HeLa cells assessed as reduction in cell growth. The assay is classed as functional, cell-based.
Assay [22] concerns K562. Kind of assay: Antiproliferative activity against human K562 cells assessed as cell growth inhibition by MTT assay. In kind it is functional, cell-based.
The subject of assay [23] is A549. The assay is described as follows: Antiproliferative activity against human A549 cells assessed as reduction in cell growth incubated for 72 hrs by MTT assay. Conditions: A549, 72 h. In kind it is functional, cell-based.
In assay [24] the test system is A549. The assay is described as follows: Antiproliferative activity against human A549 cells assessed as reduction in cell viability incubated for 48 hrs by MTT assay. In kind it is functional, cell-based. As to conditions: A549, 48 h.
For assay [25], the system named is Trichophyton mentagrophytes. The assay is described as follows: Antifungal activity against Trichophyton mentagrophytes assessed as inhibition of microbial growth. The assay is classed as functional.
Assay [26] concerns Trichophyton mentagrophytes. The assay is described as follows: Antifungal activity against Trichophyton mentagrophytes assessed as inhibition of fungal growth incubated for 48 hrs by serial plate dilution method. The assay is classed as functional.
Assay [27] deals with Nannizzia gypsea. Kind of assay: Antifungal activity against Microsporum gypseum assessed as fungal growth inhibition. The assay is classed as functional.
Assay [28] addresses Alpha glucosidase (Homo sapiens, UniProt O43451+P10253+P14410+Q2M2H8). Kind of assay: Inhibition of Alpha-glucosidase (unknown origin) using p-nitrophenyl glucopyranoside as substrate by UV based microplate reader analysis. In kind it is protein assay.
In assay [29] the test system is MCF7. The assay is described as follows: Cytotoxicity against human MCF7 cells assessed as reduction in cell viability by MTS assay. In kind it is functional, cell-based.
Assay [30] relates to HCT-116. Kind of assay: Cytotoxicity against human HCT-116 cells assessed as reduction in cell viability by MTS assay. The assay is classed as functional, cell-based.
Assay [31] concerns Bel-7402. Kind of assay: Cytotoxicity against human Bel-7402 cells assessed as reduction in cell viability. In kind it is functional, cell-based.
In assay [32] the test system is Arthrodermataceae. Kind of assay: Antibacterial activity against Arthrodermataceae. In kind it is functional.

Values after ≈ are worked out from the molar mass of the structure shown.

Tyrosine-protein phosphatase non-receptor type 1, sequence (P18031 whole entry): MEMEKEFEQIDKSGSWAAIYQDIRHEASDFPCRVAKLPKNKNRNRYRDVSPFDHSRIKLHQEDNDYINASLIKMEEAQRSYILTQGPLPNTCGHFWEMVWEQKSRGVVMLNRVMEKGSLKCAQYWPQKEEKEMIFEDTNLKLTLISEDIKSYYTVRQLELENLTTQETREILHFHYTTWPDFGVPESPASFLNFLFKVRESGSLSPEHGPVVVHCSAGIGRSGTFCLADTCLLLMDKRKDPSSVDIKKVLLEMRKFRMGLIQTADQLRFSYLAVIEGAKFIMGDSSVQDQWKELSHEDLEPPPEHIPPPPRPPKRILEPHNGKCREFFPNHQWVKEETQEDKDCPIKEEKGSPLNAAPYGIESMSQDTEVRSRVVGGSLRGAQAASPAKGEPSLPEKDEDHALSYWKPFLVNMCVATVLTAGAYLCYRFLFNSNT

In the case of `COc1ccc(C(=O)/C=C/c2ccc3c(ccn3C)c2)c2c1C=CC(C)(C)O2`, in assay [1], the IC50 (in general, the concentration at which inhibition is half-maximal) came to 0.82 µM.

`C[C@]12CC[C@H]3[C@@H](CC=C4C[C@@H](O)CC[C@@H]43)[C@@H]1CC/C2=N\N=C\c1c[nH]c2ccccc12`: the figures for the half-inhibitory concentration (IC50) in assay [2], in assay [3] and in [4] were 0.00481 µM, 1.06 µM and 0.01 µM, respectively.

Turning to `CC1(C)CC[C@]2(C(=O)O)CC[C@]3(C)C(=CC[C@@H]4[C@@]5(C)Cc6c([nH]c7c(F)cc(F)cc67)C(C)(C)[C@@H]5CC[C@]43C)[C@@H]2C1`, the IC50 in [5] stood at 9.97 µM.

Take `C[C@]12CC[C@H]3[C@]4(C=C[C@]5(C[C@@H](O)CC[C@]35C)OO4)[C@@H]1CC/C2=N\N=C1/C(=O)Nc2ccc(Cl)cc21`: the IC50 in assay [3] worked out at 9.05 µM; in assay [6] it was 7.97 µM; in assay [7] it was 5.69 µM.

For `COc1cc(/C=C/C(=O)CC(=O)/C=C/c2ccc(O)c(OC)c2)ccc1O` [CURCUMIN], the concentration for half-maximal inhibition (IC50) in [8] came to 25.4 µM; in assay [9] it was 47.6 µM; in [10], 12.2 µM.

Take `CC(C)=CCC[C@](C)(O)[C@H]1CC[C@@](C)([C@H]2CC[C@H]3[C@H]2CC[C@H]2C(C)(C)c4[nH]c5ccc(Br)cc5c4C[C@]32C)O1`: the IC50 in [11] turned out to be 13.4 µM.

Consider `CCn1cc(C(=O)O)c(=O)c2cc(F)c(N3CCNCC3)cc21` [NORFLOXACIN], for which the MIC – broadly, the least concentration at which growth counts as inhibited – was 2 mg/L (≈ 6.26 µM) in [12]; 4 mg/L in assay [13]; 4 mg/L in assay [14]; 4 mg/L (≈ 12.5 µM) in assay [15]; 2 mg/L in [16]; 2 mg/L (≈ 6.26 µM) in assay [17].

`CC(C)[C@@H](C)/C=C/[C@@H](C)[C@H]1CC[C@@H]2[C@]1(C)CC[C@H]1[C@]23C=C[C@]2(C[C@@H](O)CC[C@]12C)OO3` [ERGOSTEROL PEROXIDE]: the concentration for half-maximal inhibition (IC50) in [3] came out at 18 µM; in [6], 23.4 µM; in [7] it was 19.5 µM.

For the molecule SPIRAMYCIN, 262 µM corresponded to half-maximal inhibition in assay [18] (IC50).

As to `CC1(C)c2[nH]c3ccc(C(F)(F)F)cc3c2C[C@]2(C)[C@H]3C(=O)C=C4[C@@H]5C[C@@](C)(C(=O)O)CC[C@]5(C)CC[C@@]4(C)[C@]3(C)CC[C@@H]12`, the half-maximal inhibitory concentration (IC50) in assay [19] was 4.3 µM.

On to `COc1cc([C@@H]2c3cc4c(cc3[C@@H](O[C@@H]3O[C@@H]5CO[C@@H](C)O[C@H]5[C@H](O)[C@H]3O)[C@H]3COC(=O)[C@H]23)OCO4)cc(OC)c1O` [ETOPOSIDE], for which the IC50 in assay [20] amounted to 2.56 µM; in assay [21], 2.56 µM; in assay [22], 1.72 µM; in assay [23] it was 9.9 µM; in assay [24], 2.27 µM.

With `COc1cc(/C=C/C(=O)c2c[nH]c3ccccc23)cc(Br)c1OC`, the minimum inhibitory concentration (MIC) in assay [25] turned out to be 16 mg/L; in assay [26], 32 mg/L (≈ 82.8 µM); in assay [27] it was 1 mg/L (≈ 2.59 µM).

In [28], `C=C(C)[C@@H](C)CC[C@@H](C)[C@H]1CC[C@@]2(C)[C@@H]3CC[C@H]4[C@H](C)C(=O)CC[C@@]45C[C@@]35CC[C@]12C` displayed an IC50 of 603.8 µM.

For `C=C1C(=O)[C@]23[C@H](OC(=O)c4cc5cc(OC)ccc5[nH]4)[C@H]1CC[C@H]2[C@@]12COC3(O)[C@@H](O)[C@@H]1C(C)(C)CC[C@@H]2O` (single isomer, unassigned), the half-maximal inhibitory concentration (IC50) worked out at 0.39 µM in [29], 0.81 µM in assay [30] and 0.83 µM in [31].

As for `COc1ccc(/C=C/C(=O)c2c[nH]c3ccccc23)cc1`, the figures for the MIC in [25], in [32] and in [27] were 8 mg/L, 8 mg/L (≈ 28.8 µM) and 4 mg/L (≈ 14.4 µM), respectively.

In assay [28], `C=C(C)[C@@H](C)CC[C@@H](C)C1CC[C@@]2(C)[C@@H]3CC[C@H]4[C@H](C)c5[nH]c6ccccc6c5C[C@@]45C[C@@]35CC[C@]12C` (some centres undefined) showed an IC50 of 115.2 µM.

The values above are taken from ChEMBL document CHEMBL5356986, “Research status of indole-modified natural products” (RSC Med Chem, 2023).
